Key:
pfDUF512 [1] = target: T1, pfDUF512 (Pyrococcus furiosus, UniProt Q8U2I5); test: X-ray crystal structure; assay type: binding; details: 5 mM SAH in crystallisation, anoxic, with [4Fe-4S], cobalamin and 5'-dA; poor density for ribosyl and methionyl moieties
T1 construct: gene PF0849; full length, 358 residues (1-357 modelled); E. coli, SUMO tag cut with Ulp1, one extra N-terminal His left; monomer; [4Fe-4S]
T1 sequence (Q8U2I5 1-357): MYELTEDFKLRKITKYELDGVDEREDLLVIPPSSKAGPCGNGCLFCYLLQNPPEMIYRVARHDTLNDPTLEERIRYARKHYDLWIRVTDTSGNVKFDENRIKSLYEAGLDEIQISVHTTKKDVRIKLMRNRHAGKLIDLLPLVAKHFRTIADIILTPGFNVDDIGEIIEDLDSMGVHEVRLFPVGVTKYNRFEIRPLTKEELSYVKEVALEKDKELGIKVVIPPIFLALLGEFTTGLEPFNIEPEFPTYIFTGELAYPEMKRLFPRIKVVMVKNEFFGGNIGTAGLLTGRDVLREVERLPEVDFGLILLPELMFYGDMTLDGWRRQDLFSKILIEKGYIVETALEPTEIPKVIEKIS

pfDUF512 [2] = target: T1, pfDUF512; test: methylation of bound cobalamin, MeCbl and […]'-dA detected; assay type: biochemical; details: titanium(III) citrate, 5 min
csDUF512 = target: T2, csDUF512 (Clostridium sporogenes, UniProt Z9WP26CAS3); test: methylation of bound cobalamin, MeCbl, SAH and […]'-dA quantified; assay type: biochemical; details: titanium(III) citrate, 5 min
T2 construct: full length, 444 residues (1-443 modelled); E. coli, SUMO tag cut with Ulp1; monomer; [4Fe-4S]; codon-optimized gene
T2 sequence (Z9WP26CAS3 1-443): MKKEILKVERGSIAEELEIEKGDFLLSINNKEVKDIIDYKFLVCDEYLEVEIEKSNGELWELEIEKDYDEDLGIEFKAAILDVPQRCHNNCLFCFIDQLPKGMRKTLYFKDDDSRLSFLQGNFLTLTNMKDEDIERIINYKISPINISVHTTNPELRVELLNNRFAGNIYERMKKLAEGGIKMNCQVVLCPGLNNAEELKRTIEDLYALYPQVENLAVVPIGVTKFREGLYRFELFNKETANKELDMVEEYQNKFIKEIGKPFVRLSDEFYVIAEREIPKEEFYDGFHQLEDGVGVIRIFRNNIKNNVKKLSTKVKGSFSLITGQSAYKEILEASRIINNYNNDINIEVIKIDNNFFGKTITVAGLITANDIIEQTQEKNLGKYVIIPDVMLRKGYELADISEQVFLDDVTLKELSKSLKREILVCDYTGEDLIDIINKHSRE

acDUF512 = target: T3, acDUF512 (Acinetobacter sp. CAG:196_36_41, UniProt Z9P1A2K5F3); test: as above; assay type: biochemical; details: titanium(III) citrate, 5 min
T3 construct: full-length gene, E. coli, SUMO tag cut with Ulp1; monomer; FeS cluster
T3 sequence (Z9P1A2K5F3 1-422): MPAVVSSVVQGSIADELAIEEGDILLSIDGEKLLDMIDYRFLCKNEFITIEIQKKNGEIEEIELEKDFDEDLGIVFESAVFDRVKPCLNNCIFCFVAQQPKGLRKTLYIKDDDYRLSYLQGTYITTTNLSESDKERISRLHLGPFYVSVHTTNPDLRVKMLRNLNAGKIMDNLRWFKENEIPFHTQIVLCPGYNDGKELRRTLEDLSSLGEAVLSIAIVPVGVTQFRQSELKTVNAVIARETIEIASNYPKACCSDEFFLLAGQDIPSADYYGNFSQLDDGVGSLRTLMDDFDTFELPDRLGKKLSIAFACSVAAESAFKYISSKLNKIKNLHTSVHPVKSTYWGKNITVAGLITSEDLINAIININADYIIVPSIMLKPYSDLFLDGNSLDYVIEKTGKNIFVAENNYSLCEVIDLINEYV

SMILES | X-ray crystal structure (pfDUF512 [1]) | methylation of bound cobalamin, MeCbl and 5'-dA detected (pfDUF512 [2]) | methylation of bound cobalamin, MeCbl, SAH and 5'-dA quantified (csDUF512) | methylation of bound cobalamin, MeCbl, SAH and 5'-dA quantified (acDUF512)
Nc1ncnc2c1ncn2[C@@H]1O[C@H](CSCC[C@H](N)C(=O)O)[C@@H](O)[C@H]1O [SAH, S-adenosylhomocysteine] | pfDUF512 was crystallized under anoxic conditions in the presence of SAH | – | – | –
C[S+](CC[C@H](N)C(=O)O)C[C@H]1O[C@@H](n2cnc3c(N)ncnc32)[C@H](O)[C@@H]1O (stereo partly shown) [SAM, S-adenosylmethionine] | – | Upon incubating the four DUF512 proteins with SAM and titanium(III) citrate | Upon incubating the four DUF512 proteins with SAM and titanium(III) citrate | Upon incubating the four DUF512 proteins with SAM and titanium(III) citrate

From publication PMC11659888, “Structural Evidence for DUF512 as a Radical S-Adenosylmethionine Cobalamin-Binding Domain” (ACS Bio & Med Chem Au, 2024)
